Test system: LoVo colorectal cancer cells
Experiment: In vitro growth (proliferation, viability) of LoVo colon cancer cells
Format: cell-based, human
Procedure: FIG. 4. Effects of fractions of Deschampsia antarctica in concentrations of 100 μg/ml on in vitro growth of colon cancer cells (HT29 and LoVo), hepatic cancer cells (Hep3B) and control cells (wi38). GCB1, GCB2 and GCB3 correspond to extraction of three different collections of Deschampsia antarctica plants for the Antarctic. The extracts were prepared with water, then dried and dissolved in methanol. Control contains no extract added and the methanol control is a control containing 5% methanol as was used to dissolve the dried aqueous extract.
FIG. 5. Effects of ethyl acetate (a and B) and methanol (c and d) extracts at to concentration of 75 ug/ml on LoVo colorectal cancer cells (a and c) and we38 human fetal fibroblast cells (b and d).
Its effect on WI38 (normal lung fibroblasts) was tested at the maximum concentration to determine specificity and toxicity.
The same extract was tested in WI 38 cells (normal lung fibroblasts).

For `O=c1cc(-c2ccc(O)c(O)c2)oc2c([C@@H]3OC(CO)[C@@H](O)[C@H](O)C3O[C@H]3OC[C@H](O)[C@@H](O)C3O)c(O)cc(O)c12` (single isomer, unassigned; peak 2) [peak 2, orientin 2″-beta-arabinopyranoside], the “concentration at which inhibitory effect on cellular proliferation was observed” value (corresponds to 1.7 mM) was 1000 µg/mL and the “concentration at which inhibitory effect on cellular proliferation was observed” value (tested at 0.017, 0.17 and 1.7 mM, FIG. 6) was 1.7 mM.
